# Test results reported in ChEMBL document CHEMBL4043238, “Discovery of N-substituted 7-azaindoles as Pan-PIM kinase inhibitors - Lead series identification - Part II” (Bioorg Med Chem Lett, 2017).
# Tests used:
# [1] = target: T1, Serine/threonine-protein kinase pim-1 (Homo sapiens, UniProt P11309); assay: Inhibition of PIM1 (unknown origin) assessed as reduction in BAD phosphorylation at Ser112 residues by TR-FRET assay
# [2] = target: Serine/threonine-protein kinase pim-2 (Homo sapiens, UniProt Q9P1W9); assay: Inhibition of PIM2 (unknown origin) assessed as reduction in BAD phosphorylation at Ser112 residues by TR-FRET assay
# [3] = target: Serine/threonine-protein kinase pim-3 (Homo sapiens, UniProt Q86V86); assay: Inhibition of PIM3 (unknown origin) assessed as reduction in BAD phosphorylation at Ser112 residues by TR-FRET assay
# [4] = tested on: KG-1; assay: Antiproliferative activity against human KG1 cells; assay type: functional, cell-based
# [5] = target: T1, Serine/threonine-protein kinase pim-1; assay: Inhibition of PIM1 in human KG1 cells assessed as reduction in BAD phosphorylation; assay type: cell-based
# [6] = Permeability from apical to basolateral side in human Caco2/TC7 cells at 5 uM; assay type: ADME, cell-based; details: Caco-2, read-out: permeability
# [7] = target: Voltage-gated inwardly rectifying potassium channel KCNH2 (Homo sapiens, UniProt Q12809); assay: Inhibition of human ERG by patch clamp assay
# [8] = Clearance in human liver microsomes assessed as compound extraction at 5 uM; assay type: ADME, microsome; details: read-out: CLH
# [9] = Thermodynamic solubility of the compound at pH 7.4; assay type: physicochemical; details: buffer, read-out: Therm_solubility
# [10] = Inhibition of CYP450 (unknown origin); assay type: ADME; details: human
# [11] = Induction of CYP450 (unknown origin); assay type: ADME; details: human
# [12] = AUC (0 to infinity) in mouse at 10 mg/kg, po administered as single dose; assay type: ADME, organism-based; design: dose 10 mg/kg, route oral, time infinity; details: in vivo
# [13] = Half life in mouse at 3 mg/kg, iv administered as single dose; assay type: ADME, organism-based; details: in vivo
# [14] = Half life in mouse at 10 mg/kg, po administered as single dose; assay type: ADME, organism-based; details: in vivo
# [15] = tested on: Mus musculus; assay: Oral bioavailability in mouse at 10 mg/kg administered as single dose; assay type: ADME, organism-based; details: in vivo
# [16] = Clearance in mouse at 3 mg/kg, iv administered as single dose; assay type: ADME, organism-based; details: in vivo
# [17] = Volume of distribution at steady state in mouse at 3 mg/kg, iv administered as single dose; assay type: ADME, organism-based; details: in vivo, read-out: Vdss
# [18] = Cmax in mouse at 3 mg/kg, iv or 10 mg/kg, po administered as single dose; assay type: ADME, organism-based; details: in vivo
# [19] = tested on: Liver; assay: Stability in human liver microsomes; assay type: ADME, microsome
# [20] = tested on: Liver; assay: Stability in rat liver microsomes; assay type: ADME, microsome
# [21] = tested on: Liver; assay: Stability in mouse liver microsomes; assay type: ADME, microsome
# [22] = target: T2, Cytochrome P450 3A4 (Homo sapiens, UniProt P08684); assay: Inhibition of CYP3A4 (unknown origin) using midazolam as substrate; assay type: ADME
# [23] = target: T2, Cytochrome P450 3A4; assay: Inhibition of CYP3A4 (unknown origin) using testosterone as substrate; assay type: ADME
SMILES,IC50 [1],IC50 [2],IC50 [3],also measured
NC(=O)c1cc(Cl)c2c(Cl)c(I)n(C3CCCC(N)C3)c2n1 (racemic),1 nM,10 nM,2 nM,–
NC(=O)c1cc(Cl)c2c(Cl)c(I)n(C3CCCNCC3)c2n1 (racemic),1 nM,15 nM,3 nM,–
CN1CCC(n2c(I)c(Cl)c3c(Cl)cc(C(N)=O)nc32)CC1,2 nM,34 nM,6 nM,–
NC(=O)c1cc(Cl)c2c(Cl)c(C3=CCOCC3)n(C3CCCNC3)c2n1 (stereo not drawn),103 nM,179 nM,–,–
NC(=O)c1cc(Cl)c2c(Cl)c(-c3ccccc3)n(C3CCCNC3)c2n1 (stereo not drawn),13 nM,109 nM,–,–
Cn1c(I)c(Cl)c2c(Cl)cc(C(N)=O)nc21,31 nM,640 nM,69 nM,–
NC(=O)c1cc(Cl)c2c(Cl)c(I)n(C3CCC(N)CC3)c2n1 (stereo not drawn),1 nM,6 nM,3 nM,–
Cc1c(-c2ccc(N3CCN(C)CC3)cc2)n(C)c2nc(C(N)=O)cc(Cl)c12,37 nM,1950 nM,–,–
NC(=O)c1cc(Cl)c2c(Cl)c(I)n(C3CCNCC3)c2n1,2 nM,28 nM,4 nM,–
NC(=O)c1cc(Cl)c2c(Cl)c(I)n(C3CCNC(=O)C3)c2n1 (racemic),32 nM,660 nM,64 nM,–
NC(=O)c1cc(Cl)c2c(Cl)c(I)n(CCC3CCNCC3)c2n1,3 nM,148 nM,17 nM,–
NC(=O)c1cc(Cl)c2c(Cl)c(I)n(CC3CCNC3)c2n1 (racemic),1 nM,23 nM,1 nM,–
NC(=O)c1cc(Cl)c2c(Cl)c(C3CC3)n(C3CCCNC3)c2n1 (racemic),1 nM,13 nM,–,IC50 [4]: 310 nM; IC50 [5]: 115 nM; Papp A→B at 5 µM [6]: 1.9 ×10⁻⁶ cm/s; IC50 [7]: 2900 nM; hepatic extraction ratio at 5 µM [8]: 0.02; solubility thermodynamic [9]: 0.4 µM; inhibition (INH) [10]: Not Active; Activity [11]: Not Active; AUC(0-inf) [12]: 13700 ng·h/mL; half-life [13]: 3.1 h; half-life [14]: 8.9 h; F [15]: 155%; clearance [16]: 18.3 mL/min/kg; Vd [17]: 4.6 L/kg; Cmax [18]: 292 ng/mL
NC(=O)c1cc(Cl)c2c(Cl)c(C3CC3)n([C@@H]3CCCNC3)c2n1,4 nM,22 nM,–,IC50 [4]: 822 nM; Papp A→B at 5 µM [6]: 3.6 ×10⁻⁶ cm/s; IC50 [7]: 1500 nM; Stability [19]: 3%; Stability [20]: 8%; Stability [21]: 11%; IC50 [22]: > 30000 nM; IC50 [23]: > 30000 nM
NC(=O)c1cc(Cl)c2c(Cl)c(I)n(C3CNC3)c2n1,250 nM,4220 nM,350 nM,–
CN1CCN(c2ccc(-c3cc4c(Cl)cc(C(N)=O)nc4n3C)cc2)CC1,250 nM,> 30000 nM,–,–
NC(=O)c1cc(Cl)c2c(Cl)c(I)n(C3CCC(O)CC3)c2n1 (stereo not drawn),8 nM,116 nM,25 nM,–
